Structures are written as SMILES. Counter-ions that a name gives are not always drawn.

This series deals with uremic plasma (Homo sapiens, UniProt P02768). The series can be described thus: Binding capacity of uremic plasma for IS at different NaCl concentrations. The format is in vitro ADME.
Sequence of uremic plasma (P02768 25-609): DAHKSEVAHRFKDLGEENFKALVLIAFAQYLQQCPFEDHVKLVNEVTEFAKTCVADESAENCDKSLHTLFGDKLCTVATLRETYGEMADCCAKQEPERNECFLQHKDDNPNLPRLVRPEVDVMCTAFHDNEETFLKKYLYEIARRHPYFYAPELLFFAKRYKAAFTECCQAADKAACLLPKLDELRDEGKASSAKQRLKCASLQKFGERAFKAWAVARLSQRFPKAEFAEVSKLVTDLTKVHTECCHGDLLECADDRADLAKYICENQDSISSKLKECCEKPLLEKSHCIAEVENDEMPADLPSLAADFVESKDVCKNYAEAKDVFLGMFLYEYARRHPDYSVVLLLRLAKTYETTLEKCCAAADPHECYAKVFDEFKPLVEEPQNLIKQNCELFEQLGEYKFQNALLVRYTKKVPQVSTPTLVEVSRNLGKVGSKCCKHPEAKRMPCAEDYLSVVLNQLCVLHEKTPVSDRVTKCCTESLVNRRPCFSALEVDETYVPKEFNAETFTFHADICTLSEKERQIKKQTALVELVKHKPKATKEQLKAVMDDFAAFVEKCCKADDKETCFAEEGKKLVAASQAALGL

Procedure: After having received approval from the competent institutional review board (ethics committee of the University Hospital Würzburg, code AZ 64/12), written informed consent was obtained from 15 end-stage renal disease patients on maintenance hemodialysis in a single dialysis center (Dialysis center, Elsenfeld, Germany). Blood (7.5 mL) was collected in EDTA-tubes from each patient before dialysis.

As for `Cc1ccc(OS(=O)(=O)O)cc1` [p-cresyl sulfate], the protein bound fraction ([…] NaCl, uremic plasma 1:2 diluted, native toxin) is reported as 91% ± 2%. Further, under “plasma of hemodialysis patients before dialysis”, the “total (native) toxin concentration in uremic plasma” value is reported as 90 ± 28 µM.

For the origin of these results see paper PMC3942743 (Toxins, 2014).
